Measurements reported in patent US20110144125A1, “Anti-Arrhythmia Agents, Methods of Their Use, Methods of Their Identification and Kits Therefore” (THE UAB RESEARCH FOUNDATION, priority 2008, published 2011).
Several values for one entry are separate records, joined by “and”; a condition that tells them apart may be missing. Identical values can stand only once. Entries after “also recorded” stand apart in the source; their conditions may differ. Like-named read-outs stand apart in the source and are kept apart here.

What was measured:
rat left atria [1] = test: Spontaneous tachycardic activity (STA) in isolated rat left atria exposed to 2-APB under increased calcium load
Method: Male Sprague-Dawley rats (325-400 g) were anesthetized with intra-peritoneal pentobarbital (0.1 g/kg). Their right and left atria were isolated, superfused at 30° C. in Krebs-Henseleit buffer, and nearly isometric forces of contraction were measured from these muscles (Wolkowicz et al., 2002). 2-APB was prepared as a 150 mM dimethyl sulfoxide stock.
(§1) Left atria (n=8 per group) were paced at 3 Hz and (i) titrated with 0 to 30 nM isoproterenol (Ahlquist, 1970) or (ii) exposed to 3 μM forskolin (Laurenza et al., 1980). Left atrial force and frequency of contraction, the time to peak tension and relaxation times were recorded after a 3-5 min exposure to forskolin or to any concentration of isoproterenol. The 3 Hz pacing stimulus was interrupted at the end of these protocols to measure SMEs.
Left atria (n=10 per group) were paced at 0.1 Hz and treated with (i) 20 μM 2-APB for 10 min, (ii) with 30 nM isoproterenol for 5 min followed by 20 μM 2-APB for 10 min, and (iii) with 3 μM forskolin for 5 min followed by 20 μM 2-APB for 10 min.
Left atrial contraction and relaxation times were recorded at these five times, the pacing stimulus was stopped and rates of SMA were recorded. To determine whether initial pacing rate affects left atrial response to 2-APB and isoproterenol, left atria (n=5-7 per group) were paced at 3 Hz and (i) remained untreated for 15 min, (ii) were treated with 20 μM 2-APB alone for 10 min, or (ii) were treated with 30 nM isoproterenol for 5 min followed by 20 μM 2-APB for 10 min. Atrial mechanical function was measured at these four times; the pacing stimulus then was stopped and rates of SMA were recorded.
(§2) Left atria (n=6 per group) were paced at 3 Hz, titrated with 0 to 300 nM (−)BayK 8644 ([…]-1,4-Dihydro-2,6-dimethyl-5-nitro-4-[2-(trifluormethyl)phenyl]-3-pyridinecarboxylic acid methyl ester; Franckowiak et al. 1985) or FPL-64176 ((2,5-Dimethyl-4-[2-(phenylmethyl)benzoyl]-111-pyrrole-3-carboxylic acid methyl ester; Zheng et al., 1991) and their mechanical function and rates of SMA were recorded after a 5 min exposure to any concentration of slow calcium channel activator.
Left atria (n=8 per group) were paced at 0.1 Hz, exposed to 300 nM BayK 8644 or FPL-64176 for 5 min followed by 20 μM 2-APB for 10 min. Atrial mechanical function was recorded at this time; the pacing stimulus then was stopped and rates of SMA were recorded.
(§3) To test whether ryanodine receptor calcium leak produces SMA, left atria (n=6 per group) were paced at 0.1 Hz, treated with 0 or 300 nM BayK 8644 for 5 min, and then exposed to 600 nM ryanodine (Sutko et al., 1997). Atrial mechanical function and rates of SMA were recorded 20 min after exposure to ryanodine.
Rates of SMA were measured 5 min later.
(§4) Left atria (n=7) were paced at 3 Hz, treated with 120 μM ouabain (Illanes and Marshall, 1964), and any change in mechanical function was recorded at a new steady state, ˜10 min later. These atria were exposed to 20 μM 2-APB and their mechanical function and rates of SMA were recorded 10 min later.
3 Hz-paced left atria (n=9 per group) were superfused (i) in Krebs-Henseleit alone or (ii) they were treated with 20 μM 2-APB for 10 min, (iii) with 300 nM BayK 8644 for 10 min and with 20 μM 2-APB for 10 min, or (iv) they were treated with 300 nM BayK 8644 and 20 μM 2-APB for 10 min, then with 70 μM zatebradine (3-[3-[[2-(3,4-Dimethoxyphenyl)ethyl]methylamino] propyl]-1,3,4,5-tetrahydro-7,8,-dimethoxy-2H-3-benzazepin-2-one hydrochloride) for 10 min (Baruscotti et al., 2005). Pacing was interrupted at these times and rates of SMA were recorded.

rat left atria [2] = test: Left atrial force of contraction / post-rest potentiation maximum force
Method: Left atria were isolated from male Sprague-Dawley rats (325 to 400 g) under IP pentobarbital anesthesia (0.1 g/kg). Isolated left atria were superfused at 30° C. in Krebs-Henseleit (KH) buffer of the following mM composition: NaCl, 118; NaHCO3, 27; KCl, 4.8; MgSO4, 1.2; KH2PO4, 1.0; CaCl2, 1.8; and glucose, 11.1. Nearly isometric left atrial forces of contraction were measured as described.
The initial potentiated beat following prolonged rest (i.e., the PRP maximum force of contraction) reflects activator calcium available for SR release. The PRP response was used to obtain an indirect measure of left atrial SR calcium under our conditions.
Left atria (n=6) were superfused in KH, paced at 0.1 Hz, and subjected to PRP. Superfusion proceeded for another 35 min, and a second PRP was performed. These 2 forces were compared to assure the mechanical stability of our preparations.
One group (n=8) was superfused in KH, paced at 0.1 Hz, and their maximum force of contraction was measured. These atria were washed with KH containing 82 mM sodium, and a second PRP was performed 23 min later.
A second group (n=8) was paced at 0.1 Hz in KH and subjected to PRP. They were exposed to 22 μM 2-APB and, after the appearance of SMA, were washed with KH containing 22 μM 2-APB and 82 mM sodium. Superfusion continued for 23 min and a second PRP was performed.
Control 0.1 Hz paced atria (n=8) were subjected to PRP and exposed to 400 μM DIDS, and a second PRP was performed 23 min later.
A group of atria (n=8) were paced at 0.1 Hz in KH and subjected to PRP. They were exposed to 22 μM 2-APB, 400 μM DIDS was added to the superfusate after the appearance of SMA, and a second PRP was performed 23 min later.
as §1, §2, §3, §4
To test whether zatebradine affects left atrial force of contraction, two groups of left atria (n=9 per group) were paced at 3 Hz and treated with 300 nM BayK 8644. Five minutes later one group was incubated with six increasing concentrations of zatebradine (10-100 μM) for 3-5 min at each concentration, and forces of contraction were recorded. A second group was treated with BayK 8644 but not zatebradine, and forces of contraction were recorded at corresponding times.

[3] = 20 μM 2-APB plus 30 nM isoproterenol, 3 μM forskolin, 300 nM BayK 8644, 300 nM FPL-64176 or 120 μM ouabain, absence of pacing, 30° C.
[4] = no 2-APB, 30 nM isoproterenol, 3 μM forskolin, 300 nM BayK 8644 or FPL-64176, 120 μM ouabain, 600 nM ryanodine

Row | Compound | rate of STA (SMA frequency) in presence of 2-APB and calcium loading agent (rat left atria [1]) | left atrial force of contraction with agent alone (rat left atria [2]) | rate of STA (SMA frequency) in presence of 2-APB and calcium loading agent (rat left atria [1]; [3]) | left atrial force of contraction with agent alone (rat left atria [2]; [4]) | other results
1 | NCCOB(c1ccccc1)c1ccccc1 [2-APB, 2-aminoethoxydiphenyl borate] |  |  |  |  | rate of STA post-washing (rat left atria [1]): 0.7±0.4 contractions/min; rate of STA pre-washing (rat left atria [1]): 224±12 contractions/min; maximum force of atrial contraction (rat left atria [2]): also decreased; maximum force of left atrial contraction (rat left atria [2]): significantly decreased
2 | COC(=O)C1=C(C)NC(C)=C([N+](=O)[O-])[C@H]1c1ccccc1C(F)(F)F [BayK 8644, (45)-1,4-Dihydro-2,6-dimethyl-5-nitro-4-[2-(trifluormethyl)phenyl]-3-pyridinecarboxylic acid methyl ester] | 227±10 contractions/min | increase left atrial force of contraction |  |  | 
3 | COC(=O)c1c(C)[nH]c(C)c1C(=O)c1ccccc1Cc1ccccc1 [FPL-64176, 2,5-Dimethyl-4-[2-(phenylmethyl)benzoyl]-111-pyrrole-3-carboxylic acid methyl ester] | 222±9 contractions/min | increase left atrial force of contraction |  |  | 
4 | CC(C)NCC(O)c1ccc(O)c(O)c1 (centres unmarked) [isoproterenol] |  |  | ~230 contractions/min and 239±11 contractions/min and 225±3.6 contractions/min | increase left atrial force of contraction | 
5 | C[C@@H]1O[C@@H](O[C@H]2C[C@@H](O)[C@]3(CO)[C@H]4[C@H](O)C[C@]5(C)[C@@H](C6=CC(=O)OC6)CC[C@]5(O)[C@@H]4CC[C@]3(O)C2)[C@H](O)[C@H](O)[C@H]1O [ouabain] |  |  | 202±5.6 contractions/min | doubles their force of contraction | 
6 | ryanodine |  | Time-dependent decreases in force of contraction |  |  | STA after depletion of ryanodine-sensitive calcium stores (rat left atria [1]; BayK 8644 and 2-APB, then 600 nM ryanodine): persists; also recorded: does not terminate STA
